# Source: patent US8227428B2, “Anti-infammatory macrolide” (Glaxo Group Limited, priority 2009, dated 2012)
# Columns and labels:
# [1] = Stability in buffer solutions pH 2 to pH 8 at 25° C.; format: physicochemical
# Description: (§1) Stability in buffer solutions pH 2 to pH 8 at 25° C., and in bio-relevant media (SGF pH 1.6, Fasted SIF pH 6.5 and Fed SIF pH 5.0) at 37° C., during 24 hours is monitored. The samples are analysed by LC/MS.
# Buffer Solutions and Physiologically Relevant Media Used in Stability Assay:
# LC Conditions: Instrument HP1100
# Column: Waters XBridge C18, 2.1×50 mm, 3.5 μm
# Guard column: Waters XBridge C18, 2.1×10 mm, 3.5 μm
# • A) 0.1% HCOOH/H2O • B) 0.1% HCOOH/CH3CN Gradient Timetable: […]
# (§2) Flow: 0.3 mL/min Column temp.: 25° C. Sample temp.: 25° C. (for stability assay in buffer solutions) • 37° C. (for stability assay in bio-relevant media) Injector volume: 3 μL (without injection program) MS Conditions: Instrument HP MS API-ES, positive ion mode Mass Range: 150-1500 Fragmentor: 100 Gain: 1.0 Treshold: 150 Step size: 0.20 Gas Temperature: 350° C. Drying Gas Flow: 13 L/min Nebulizer Pressure: 35 psig Capillary Voltage Positive 4000 V • Negative 4000 V Sample Preparation: a) For Stability Assay in Buffer Solutions
# Compounds are dissolved in CH3CN to produce a 1 mg/mL stock solution. The stock solution is diluted to a concentration of 0.2 mg/mL (1 mL solution in 4 mL buffer) with appropriate buffer to produce a working solution.
# Each solution at each pH is then dispatched into vials that are sealed and stored at room temperature in order to be analyzed at the proper time point. Before analysis, pH values of prepared sample solutions are checked and adjusted if neccessary.
# [2] = Stability in bio-relevant media (SGF, Fasted SIF, Fed SIF) at 37° C.; format: physicochemical
# Description: as §1
# SGF (Simulated Gastric Fluid) pH 1.6
# Fasted SIF (Simulated Intestinal Fluid) pH 6.5
# Fed SIF (Simulated Intestinal Fluid) pH 5.0
# as §2
# b) For Stability Assay in Bio-Relevat Media
# b1) For SGF Media pH 1.6 Testing:
# Compounds are dissolved in SGF media pH 1.6 to give 0.2 mg/mL solution in case of compounds 1 and 2, and to give 0.1 mg/mL solution in case of compound 3. Solutions are then stored in a water bath at 37° C. and removed at the proper time point for LC/MS analysis. Before analysis, pH values of prepared sample solutions are checked and adjusted if necessary.
# b2) For Fasted SIF Media pH 6.5 Testing:
# (§3) Compounds are dissolved in Fasted SIF media pH 6.5 to give 2 mg/mL solution. Solutions are then dispatched into vials that are stored in a water bath at 37° C. and removed at the proper time point and diluted 10 times with CH3CN for LC/MS analysis. Before analysis, pH values of prepared sample solutions are checked and adjusted if necessary.
# b3) For Fed SIF Media pH 5.0 Testing:
# as §3, with “Fed” for “Fasted”, “5.0” for “6.5”, “40” for “10”
smiles,measurement,setting,value
"CC[C@H]1OC(=O)[C@H](C)[C@@H](O[C@H]2C[C@@](C)(OC)[C@@H](OC(=O)CN(CC)CC)[C@H](C)O2)[C@H](C)[C@@H](O[C@@H]2O[C@H](C)C[C@H](N(C)C)[C@H]2O)[C@](C)(OC)C[C@@H](C)C(=O)N[C@H](C)[C@@H](O)[C@]1(C)O [Example 3, 4″-O-(2-diethylaminoethanoyl)-6-O-methyl-9a-aza-9a-homoerythromycin A]",Percentage (Area %) of the compound observed in buffers,"[1]; pH 6, 25° C., 20 h",99.7 Area %
same,Percentage (Area %) of the compound observed in buffers,"[1]; pH 6, 25° C., 22 h",99.7 Area %
same,Percentage (Area %) of the compound observed in buffers,"[1]; pH 6, 25° C., 24 h",99.7 Area %
same,Percentage (Area %) of the compound observed in buffers,"[1]; pH 6, 25° C., Initial",100 Area %
same,Percentage (Area %) of the compound observed in buffers,"[1]; pH 7, 25° C., 2 h",100 Area %
same,Percentage (Area %) of the compound observed in buffers,"[1]; pH 7, 25° C., 4 h",99.9 Area %
same,Percentage (Area %) of the compound observed in buffers,"[1]; pH 7, 25° C., 6 h",99.9 Area %
same,Percentage (Area %) of the compound observed in buffers,"[1]; pH 7, 25° C., 8 h",99.9 Area %
same,Percentage (Area %) of the compound observed in buffers,"[1]; pH 7, 25° C., 12 h",99.7 Area %
same,Percentage (Area %) of the compound observed in buffers,"[1]; pH 7, 25° C., 14 h",99.7 Area %
same,Percentage (Area %) of the compound observed in buffers,"[1]; pH 7, 25° C., 18 h",99.8 Area %
same,Percentage (Area %) of the compound observed in buffers,"[1]; pH 7, 25° C., 20 h",98.8 Area %
same,Percentage (Area %) of the compound observed in buffers,"[1]; pH 7, 25° C., 22 h",99.7 Area %
same,Percentage (Area %) of the compound observed in buffers,"[1]; pH 7, 25° C., 24 h",98.7 Area %
same,Percentage (Area %) of the compound observed in buffers,"[1]; pH 7, 25° C., Initial",100 Area %
same,Percentage (Area %) of the compound observed in buffers,"[1]; pH 8, 25° C., 2 h",99.9 Area %
same,Percentage (Area %) of the compound observed in buffers,"[1]; pH 8, 25° C., 4 h",99.9 Area %
same,Percentage (Area %) of the compound observed in buffers,"[1]; pH 8, 25° C., 6 h",99.9 Area %
same,Percentage (Area %) of the compound observed in buffers,"[1]; pH 8, 25° C., 8 h",99.7 Area %
same,Percentage (Area %) of the compound observed in buffers,"[1]; pH 8, 25° C., 12 h",99.5 Area %
same,Percentage (Area %) of the compound observed in buffers,"[1]; pH 8, 25° C., 14 h",99.4 Area %
same,Percentage (Area %) of the compound observed in buffers,"[1]; pH 8, 25° C., 18 h",98.4 Area %
same,Percentage (Area %) of the compound observed in buffers,"[1]; pH 8, 25° C., 20 h",98.3 Area %
same,Percentage (Area %) of the compound observed in buffers,"[1]; pH 8, 25° C., 22 h",98.2 Area %
same,Percentage (Area %) of the compound observed in buffers,"[1]; pH 8, 25° C., 24 h",98.2 Area %
same,Percentage (Area %) of the compound observed in buffers,"[1]; pH 8, 25° C., Initial",100 Area %
same,Percentage (Area %) of the compound observed in Bio-relevant media,"[2]; Fasted SIF pH 6.5, 37° C., 1 h",99.2 Area %
same,Percentage (Area %) of the compound observed in Bio-relevant media,"[2]; Fasted SIF pH 6.5, 37° C., 2 h",98.7 Area %
same,Percentage (Area %) of the compound observed in Bio-relevant media,"[2]; Fasted SIF pH 6.5, 37° C., 3 h",98.3 Area %
same,Percentage (Area %) of the compound observed in Bio-relevant media,"[2]; Fasted SIF pH 6.5, 37° C., 4 h",97.8 Area %
same,Percentage (Area %) of the compound observed in Bio-relevant media,"[2]; Fasted SIF pH 6.5, 37° C., 5 h",97.6 Area %
same,Percentage (Area %) of the compound observed in Bio-relevant media,"[2]; Fasted SIF pH 6.5, 37° C., 24 h",95.1 Area %
same,Percentage (Area %) of the compound observed in Bio-relevant media,"[2]; Fasted SIF pH 6.5, 37° C., Initial",100 Area %
same,Percentage (Area %) of the compound observed in Bio-relevant media,"[2]; Fed SIF pH 5.0, 37° C., 1 h",100 Area %
same,Percentage (Area %) of the compound observed in Bio-relevant media,"[2]; Fed SIF pH 5.0, 37° C., 2 h",99.9 Area %
same,Percentage (Area %) of the compound observed in Bio-relevant media,"[2]; Fed SIF pH 5.0, 37° C., 3 h",100 Area %
same,Percentage (Area %) of the compound observed in Bio-relevant media,"[2]; Fed SIF pH 5.0, 37° C., 4 h",99.9 Area %
same,Percentage (Area %) of the compound observed in Bio-relevant media,"[2]; Fed SIF pH 5.0, 37° C., 5 h",99.8 Area %
same,Percentage (Area %) of the compound observed in Bio-relevant media,"[2]; Fed SIF pH 5.0, 37° C., 24 h",99.8 Area %
same,Percentage (Area %) of the compound observed in Bio-relevant media,"[2]; Fed SIF pH 5.0, 37° C., Initial",100 Area %
same,Percentage (Area %) of the compound observed in Bio-relevant media,"[2]; SGF pH 1.6, 37° C., 1 h",98.5 Area %
same,Percentage (Area %) of the compound observed in Bio-relevant media,"[2]; SGF pH 1.6, 37° C., 2 h",98.5 Area %
same,Percentage (Area %) of the compound observed in Bio-relevant media,"[2]; SGF pH 1.6, 37° C., 3 h",98.0 Area %
same,Percentage (Area %) of the compound observed in Bio-relevant media,"[2]; SGF pH 1.6, 37° C., 4 h",98.0 Area %
same,Percentage (Area %) of the compound observed in Bio-relevant media,"[2]; SGF pH 1.6, 37° C., 5 h",98.0 Area %
same,Percentage (Area %) of the compound observed in Bio-relevant media,"[2]; SGF pH 1.6, 37° C., 6 h",95.9 Area %
same,Percentage (Area %) of the compound observed in Bio-relevant media,"[2]; SGF pH 1.6, 37° C., 8 h",95.7 Area %
same,Percentage (Area %) of the compound observed in Bio-relevant media,"[2]; SGF pH 1.6, 37° C., 10 h",95.0 Area %
same,Percentage (Area %) of the compound observed in Bio-relevant media,"[2]; SGF pH 1.6, 37° C., 12 h",95.0 Area %
same,Percentage (Area %) of the compound observed in Bio-relevant media,"[2]; SGF pH 1.6, 37° C., 24 h",94.5 Area %
same,Percentage (Area %) of the compound observed in Bio-relevant media,"[2]; SGF pH 1.6, 37° C., Initial",100 Area %
same,stability in all three bio relevant media,"[2]; SGF pH 1.6, Fasted SIF pH 6.5, Fed SIF pH 5.0, 37° C., during 24 hours",Examples 1 and 3 showed stability in all three bio relevant media.
